# In US9783527B2, “Indazole ureas and method of use” (AbbVie Inc., priority 2014, dated 2017):
# Target: human Nav1.7 (Homo sapiens (Human), UniProt Q15858)
# Test: FRET-based membrane potential assay, recombinant human sodium channel Nav1.7
# Assay type: cell-based
# Details: HEK293 cells stably expressing recombinant human Nav1.7; depolarization with veratridine (EC80) + scorpion venom
# Procedure, shortened: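 IC50 derived by four-parameter Hill fit of percent inhibition of depolarization, measured as peak F440-480/F565-625 ratio over baseline. Stable human Nav1.7 HEK293 cells, dye-loaded with CC2-DMPE and DiSBAC2(3)/VABSC-1 at room temperature, received compound 3 min ahead of veratridine (EC80) plus scorpion venom.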
# Sequence of human Nav1.7 (Q15858 whole entry): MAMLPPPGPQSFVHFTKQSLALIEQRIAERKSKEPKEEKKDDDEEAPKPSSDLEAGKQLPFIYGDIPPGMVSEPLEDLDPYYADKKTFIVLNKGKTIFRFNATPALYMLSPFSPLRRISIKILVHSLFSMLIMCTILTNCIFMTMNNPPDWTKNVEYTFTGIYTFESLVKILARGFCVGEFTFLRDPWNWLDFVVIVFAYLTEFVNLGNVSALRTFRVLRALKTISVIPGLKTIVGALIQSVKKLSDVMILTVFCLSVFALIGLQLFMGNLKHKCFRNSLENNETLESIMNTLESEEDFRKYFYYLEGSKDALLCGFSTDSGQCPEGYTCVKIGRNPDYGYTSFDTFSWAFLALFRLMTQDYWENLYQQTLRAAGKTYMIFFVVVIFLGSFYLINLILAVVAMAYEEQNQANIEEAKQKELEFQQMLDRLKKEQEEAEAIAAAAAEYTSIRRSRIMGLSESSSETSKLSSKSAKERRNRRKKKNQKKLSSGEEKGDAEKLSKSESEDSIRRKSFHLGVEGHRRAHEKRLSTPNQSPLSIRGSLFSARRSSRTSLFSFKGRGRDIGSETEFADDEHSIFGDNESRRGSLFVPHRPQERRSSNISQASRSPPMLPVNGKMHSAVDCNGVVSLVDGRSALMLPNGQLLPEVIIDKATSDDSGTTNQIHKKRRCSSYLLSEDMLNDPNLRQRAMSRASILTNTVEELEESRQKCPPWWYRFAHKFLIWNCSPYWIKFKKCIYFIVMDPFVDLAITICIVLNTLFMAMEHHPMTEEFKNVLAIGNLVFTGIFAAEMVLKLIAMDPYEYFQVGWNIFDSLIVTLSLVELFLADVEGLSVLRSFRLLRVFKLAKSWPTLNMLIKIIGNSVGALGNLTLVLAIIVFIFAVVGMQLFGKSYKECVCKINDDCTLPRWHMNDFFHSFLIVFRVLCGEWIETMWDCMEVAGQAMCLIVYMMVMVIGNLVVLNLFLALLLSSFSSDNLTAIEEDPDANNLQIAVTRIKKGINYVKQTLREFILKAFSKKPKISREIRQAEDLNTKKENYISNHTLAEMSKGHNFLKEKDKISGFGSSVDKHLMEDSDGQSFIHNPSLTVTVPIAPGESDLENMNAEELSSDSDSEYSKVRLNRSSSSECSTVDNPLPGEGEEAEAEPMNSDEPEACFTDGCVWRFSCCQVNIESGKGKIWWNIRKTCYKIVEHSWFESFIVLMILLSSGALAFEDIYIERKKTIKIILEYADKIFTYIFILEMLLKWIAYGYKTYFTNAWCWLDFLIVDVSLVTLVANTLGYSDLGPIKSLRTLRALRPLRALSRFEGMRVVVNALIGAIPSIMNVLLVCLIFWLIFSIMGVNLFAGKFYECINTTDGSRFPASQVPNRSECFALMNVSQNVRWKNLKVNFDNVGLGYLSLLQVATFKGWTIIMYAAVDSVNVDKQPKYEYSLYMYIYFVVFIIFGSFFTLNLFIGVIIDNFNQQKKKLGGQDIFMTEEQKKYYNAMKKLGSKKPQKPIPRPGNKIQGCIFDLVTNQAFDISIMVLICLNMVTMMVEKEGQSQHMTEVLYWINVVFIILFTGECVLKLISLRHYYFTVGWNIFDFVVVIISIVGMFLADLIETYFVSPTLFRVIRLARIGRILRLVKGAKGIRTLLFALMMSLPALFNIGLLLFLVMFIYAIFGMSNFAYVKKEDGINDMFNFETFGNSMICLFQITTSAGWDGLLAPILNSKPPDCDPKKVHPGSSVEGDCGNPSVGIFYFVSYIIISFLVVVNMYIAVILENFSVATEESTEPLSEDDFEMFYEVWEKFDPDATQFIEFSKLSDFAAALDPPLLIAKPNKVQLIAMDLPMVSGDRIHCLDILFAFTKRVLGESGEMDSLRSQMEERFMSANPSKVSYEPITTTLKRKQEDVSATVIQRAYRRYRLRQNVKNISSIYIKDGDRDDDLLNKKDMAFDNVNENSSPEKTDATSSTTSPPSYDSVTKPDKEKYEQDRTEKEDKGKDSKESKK
row,SMILES,IC50
1,"O=C1N(CC(O)CC2CCCCC2)CCN1c1cccc2c1cnn2-c1ccccc1F (centres unmarked) [Example 139, 1-(3-cyclohexyl-2-hydroxypropyl)-3-[1-(2-fluorophenyl)-1H-indazol-4-yl]imidazolidin-2-one]",2410 nM
2,"O=C(CC1CCC1)CN1CCN(c2cccc3c2cnn3-c2ccccc2F)C1=O [Example 140, 1-(3-cyclobutyl-2-oxopropyl)-3-[1-(2-fluorophenyl)-1H-indazol-4-yl]imidazolidin-2-one]",878 nM
3,"O=C1N(CC(O)CC2CCC2)CCN1c1cccc2c1cnn2-c1ccccc1F (centres unmarked) [Example 141, 1-(3-cyclobutyl-2-hydroxypropyl)-3-[1-(2-fluorophenyl)-1H-indazol-4-yl]imidazolidin-2-one]",1160 nM
4,"O=C(CC1CC2CCC1C2)CN1CCN(c2cccc3c2cnn3-c2ccccc2F)C1=O (centres unmarked) [Example 142, 1-[3-(bicyclo[2.2.1]hept-2-yl)-2-oxopropyl]-3-[1-(2-fluorophenyl)-1H-indazol-4-yl]imidazolidin-2-one]",2000 nM
5,"O=C(CN1CCN(c2cccc3c2cnn3-c2ccccc2F)C1=O)c1ccccc1 [Example 143, 1-[1-(2-fluorophenyl)-1H-indazol-4-yl]-3-(2-oxo-2-phenylethyl)imidazolidin-2-one]",874 nM
6,"O=C(CN1CCN(c2cccc3c2cnn3-c2ccccc2F)C1=O)C1CCCC1 [Example 144, 1-(2-cyclopentyl-2-oxoethyl)-3-[1-(2-fluorophenyl)-1H-indazol-4-yl]imidazolidin-2-one]",2100 nM
7,"CC(=O)CN1CCN(c2cccc3c2cnn3-c2ccccc2F)C1=O [Example 145, 1-[1-(2-fluorophenyl)-1H-indazol-4-yl]-3-(2-oxopropyl)imidazolidin-2-one]",6230 nM
8,"C=CCCC(C)(O)CN1CCN(c2cccc3c2cnn3-c2ccccc2F)C1=O (centres unmarked) [Example 146, 1-[1-(2-fluorophenyl)-1H-indazol-4-yl]-3-(2-hydroxy-2-methylhex-5-en-1-yl)imidazolidin-2-one]",3120 nM
9,"O=C(CN1CCN(c2cccc3c2cnn3-c2ccccc2F)C1=O)c1ccc(F)nc1 [Example 147, 1-[1-(2-fluorophenyl)-1H-indazol-4-yl]-3-[2-(6-fluoropyridin-3-yl)-2-oxoethyl]imidazolidin-2-one]",1050 nM
10,"CCC(O)(CC(C)C)CN1CCN(c2cccc3c2cnn3-c2ccccc2F)C1=O (centres unmarked) [Example 148, 1-(2-ethyl-2-hydroxy-4-methylpentyl)-3-[1-(2-fluorophenyl)-1H-indazol-4-yl]imidazolidin-2-one]",2280 nM
11,"COc1cccc(C(=O)CN2CCN(c3cccc4c3cnn4-c3ccccc3F)C2=O)c1 [Example 149, 1-[1-(2-fluorophenyl)-1H-indazol-4-yl]-3-[2-(3-methoxyphenyl)-2-oxoethyl]imidazolidin-2-one]",2970 nM
12,"O=C(CN1CCN(c2cccc3c2cnn3-c2ccccc2F)C1=O)c1cccc(F)c1 [Example 150, 1-[1-(2-fluorophenyl)-1H-indazol-4-yl]-3-[2-(3-fluorophenyl)-2-oxoethyl]imidazolidin-2-one]",3160 nM
13,"O=C(CN1CCN(c2cccc3c2cnn3-c2ccccc2F)C1=O)c1ccc(C(F)(F)F)cc1 [Example 151, 1-[1-(2-fluorophenyl)-1H-indazol-4-yl]-3-{2-oxo-2-[4-(trifluoromethyl)phenyl]ethyl}imidazolidin-2-one]",20000 nM
14,"O=C(CN1CCN(c2cccc3c2cnn3-c2ccccc2F)C1=O)c1cccnc1 [Example 152, 1-[1-(2-fluorophenyl)-1H-indazol-4-yl]-3-[2-oxo-2-(pyridin-3-yl)ethyl]imidazolidin-2-one]",2260 nM
15,"O=C(CN1CCN(c2cccc3c2cnn3-c2ccccc2F)C1=O)c1ccc2c(c1)OCO2 [Example 153, 1-[2-(1,3-benzodioxol-5-yl)-2-oxoethyl]-3-[1-(2-fluorophenyl)-1H-indazol-4-yl]imidazolidin-2-one]",1320 nM
16,"O=C1N(c2cnccc2F)CCN1c1cccc2c1cnn2-c1ccccc1F [Example 154, 1-[1-(2-fluorophenyl)-1H-indazol-4-yl]-3-(4-fluoropyridin-3-yl)imidazolidin-2-one]",2870 nM
17,"CC(C)C[C@@H](O)CN1CCN(c2cccc3c2cnn3-c2ccccc2F)C1=O [Example 155, 1-[1-(2-fluorophenyl)-1H-indazol-4-yl]-3-[(2R)-2-hydroxy-4-methylpentyl]imidazolidin-2-one]",1880 nM
18,"CC(C)C[C@H](O)CN1CCN(c2cccc3c2cnn3-c2ccccc2F)C1=O [Example 156, 1-[1-(2-fluorophenyl)-1H-indazol-4-yl]-3-[(2S)-2-hydroxy-4-methylpentyl]imidazolidin-2-one]",1350 nM
19,"O=C(CC1CCOC1)CN1CCN(c2cccc3c2cnn3-c2ccccc2F)C1=O (centres unmarked) [Example 157, 1-[1-(2-fluorophenyl)-1H-indazol-4-yl]-3-[2-oxo-3-(tetrahydrofuran-3-yl)propyl]imidazolidin-2-one]",3370 nM
20,"O=C1N(c2cncs2)CCN1c1cccc2c1cnn2-c1ccccc1F [Example 158, 1-[1-(2-fluorophenyl)-1H-indazol-4-yl]-3-(1,3-thiazol-5-yl)imidazolidin-2-one]",20000 nM
21,"CC[C@@H](CO)N1CCN(c2cccc3c2cnn3-c2ccccc2F)C1=O [Example 159, 1-[1-(2-fluorophenyl)-1H-indazol-4-yl]-3-[(2S)-1-hydroxybutan-2-yl]imidazolidin-2-one]",3590 nM
22,"CC[C@@H](O)CN1CCN(c2cccc3c2cnn3-c2ccccc2F)C1=O [Example 160, 1-[1-(2-fluorophenyl)-1H-indazol-4-yl]-3-[(2R)-2-hydroxybutyl]imidazolidin-2-one]",3510 nM
23,"CC(C)(C)C(=O)CN1CCN(c2cccc3c2cnn3-c2ccccc2F)C1=O [Example 161, 1-(3,3-dimethyl-2-oxobutyl)-3-[1-(2-fluorophenyl)-1H-indazol-4-yl]imidazolidin-2-one]",1400 nM
24,"CC(C)C(=O)CN1CCN(c2cccc3c2cnn3-c2ccccc2F)C1=O [Example 162, 1-[1-(2-fluorophenyl)-1H-indazol-4-yl]-3-(3-methyl-2-oxobutyl)imidazolidin-2-one]",729 nM
25,"CC(C)C(O)CN1CCN(c2cccc3c2cnn3-c2ccccc2F)C1=O (centres unmarked) [Example 163, 1-[1-(2-fluorophenyl)-1H-indazol-4-yl]-3-(2-hydroxy-3-methylbutyl)imidazolidin-2-one]",2160 nM
26,"O=C(CN1CCN(c2cccc3c2cnn3-c2ccccc2F)C1=O)C1CCC1 [Example 164, 1-(2-cyclobutyl-2-oxoethyl)-3-[1-(2-fluorophenyl)-1H-indazol-4-yl]imidazolidin-2-one]",635 nM
27,"O=C1N(CC(O)C2CCC2)CCN1c1cccc2c1cnn2-c1ccccc1F (centres unmarked) [Example 165, 1-(2-cyclobutyl-2-hydroxyethyl)-3-[1-(2-fluorophenyl)-1H-indazol-4-yl]imidazolidin-2-one]",681 nM
28,"O=C(C1CCC1)C(O)N1CCN(c2cccc3c2cnn3-c2ccccc2F)C1=O (centres unmarked) [Example 166, 1-(2-cyclobutyl-1-hydroxy-2-oxoethyl)-3-[1-(2-fluorophenyl)-1H-indazol-4-yl]imidazolidin-2-one]",435 nM
29,"CC(C)C[C@@](C)(O)CN1CCN(c2cccc3c2cnn3-c2ccccc2F)C1=O [Example 167, 1-[1-(2-fluorophenyl)-1H-indazol-4-yl]-3-[(2R)-2-hydroxy-2,4-dimethylpentyl]imidazolidin-2-one]",893 nM
